Tests used:
Format in all cases: biochemical
[1] = target: T1, CYP2D (rat liver microsomes); test: bufuralol […]'-hydroxylation in liver microsomes, HPLC with fluorometric detection, Dixon plot; conditions: competitive; bufuralol 5, 10 and 20 µM; iloperidone 1-250 µM; 0.5 mg protein/mL; NADPH-generating system; CYP2D isoenzymes mixed
T1 construct: gene Cyp2d1; native enzymes in pooled liver microsomes of control male rats (n = 10); CYP2D1 and CYP2D2 named most abundant in liver

[2] = target: T2, CYP2D (rat brain microsomes); test: bufuralol […]'-hydroxylation in whole-brain microsomes, HPLC with fluorometric detection, Dixon plot; conditions: competitive; bufuralol 50, 100 and 200 µM; iloperidone 25-500 µM; 2 mg protein/mL; NADPH-generating system; CYP2D isoenzymes mixed
T2 construct: gene Cyp2d4; native enzymes in pooled whole-brain microsomes of control male rats (n = 10); CYP2D4 named main brain form

[3] = system: T1, CYP2D (rat liver microsomes); test: bufuralol […]'-hydroxylation in liver microsomes, HPLC with fluorometric detection; conditions: NADPH-generating system; 0.5 mg protein/mL; no inhibitor; CYP2D isoenzymes mixed
[4] = system: T2, CYP2D (rat brain microsomes); test: bufuralol […]'-hydroxylation in whole-brain microsomes, HPLC with fluorometric detection; conditions: NADPH-generating system; 2 mg protein/mL; no inhibitor; CYP2D isoenzymes mixed

Structure (SMILES) | Ki [1] [µM] | Ki [2] [µM] | Km [3] [µM] | Km [4] [µM]
COc1cc(C(C)=O)ccc1OCCCN1CCC(c2noc3cc(F)ccc23)CC1 [iloperidone] | 11.5 | 462 |  | 
CCc1cccc2cc(C(O)CNC(C)(C)C)oc12 (stereo not shown) [bufuralol] |  |  | 8.26 | 492
